Results published in the supplement of paper PMC8671470.

Assays:
[1] = test system: KCL-22; test: cell viability (% survival relative to DMSO control, bortezomib = 0%); higher = less cytotoxic; settings: 72 h
Summary of the method: (§1)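 Seeding density for each of the 10 AML and 5 CML cell lines was titrated to the linear growth range. Cells went into 384-well plates pre-printed in duplicate with compounds at 1, 10, 100, 1000 or 10000 nM and were held for 72 h at 37 °C with 5% CO2. CellTiter-Glo luminescence then provided the readout. Percent survival is expressed relative to vehicle at 100% and a 10 µM positive control at 0%, averaged over duplicates.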

[2] = test system: ML-2; test: as above; settings: 72 h
Summary of the method: as §1

| Structure (SMILES) | cell viability ([1]; 1 nM) | cell viability ([1]; 10 nM) | cell viability ([1]; 100 nM) | cell viability ([1]; 1000 nM) | cell viability ([1]; 10000 nM) | cell viability ([2]; 1 nM) | cell viability ([2]; 10 nM) | cell viability ([2]; 100 nM) | cell viability ([2]; 1000 nM) | cell viability ([2]; 10000 nM) |
| --- | --- | --- | --- | --- | --- | --- | --- | --- | --- | --- |
| Clc1ccc2c(c1Cl)CNCC2 | 101% | 120% | 92.2% | 108% | 91.5% | 91.5% | 118% | 90% | 102% | 87.9% |
| O=C(O)C(S)=Cc1c[nH]c2ccc(F)cc12 | 111% | 94.6% | 102% | 112% | 101% | 101% | 98.6% | 113% | 111% | 91.5% |
| CC(C)Cc1sc(N)nc1-c1ccc(P(=O)(O)O)o1 | 95.8% | 108% | 108% | 112% | 101% | 98.1% | 108% | 105% | 103% | 92.7% |
| Cl.OC[C@H]1NC[C@@H](O)[C@@H](O)[C@@H]1O [1-Deoxymannojirimycin hydrochloride] | 95.9% | 86.8% | 96.4% | 111% | 105% | 101% | 90.6% | 100% | 110% | 87.6% |
| CN(C)c1nc(O)c2[nH]cnc2n1 [2-Dimethylamino-6-hydroxypurine] | 98.2% | 81.3% | 106% | 99% | 87.1% | 97.7% | 89.6% | 95.3% | 107% | 94.5% |
| O=C(O)c1cc2sccc2[nH]1 [4H-thieno[3,2-b]pyrrole-5-carboxylic acid] | 90.3% | 104% | 84.7% | 101% | 99.8% | 105% | 96.6% | 84.2% | 99.1% | 113% |
| [N-]=[N+]=CC(=O)CC[C@H](N)C(=O)O [6-Diazo-5-oxo-L-norleucine] | 94.7% | 104% | 109% | 109% | 101% | 95.1% | 95.3% | 98.3% | 116% | 110% |
| Sc1ncnc2nc[nH]c12 [6-mercaptopurine] | 92.6% | 89.7% | 105% | 52% | 8.81% | 111% | 91.3% | 87.9% | 56.1% | 13.5% |
| O=C(O)CC[C@H](NC(=O)c1ccc([N+](=O)[O-])cc1)C(=O)O [(S)-2-(4-Nitrobenzamido)pentanedioic acid] | 93.4% | 98.1% | 107% | 95.5% | 90.8% | 103% | 91.2% | 101% | 93.7% | 95.4% |
| O=C1Nc2ccccc2/C1=C\NCCc1ccc(O)c(O)c1 [AC1NZZMF] | 79.2% | 90.9% | 102% | 106% | 94.3% | 113% | 111% | 101% | 95.4% | 75.9% |
| Cc1ccc(S(=O)(=O)NC2c3ccccc3Oc3ccccc32)cc1 [AH-7614] | 75.6% | 84% | 128% | 101% | 80.8% | 97.3% | 99.2% | 104% | 104% | 114% |
| C[C@]12CC[C@H](O)CC1=CC[C@@H]1[C@@H]2CC[C@]2(C)C(c3cccnc3)=CC[C@@H]12 [Abiraterone] | 99.6% | 92% | 111% | 112% | 87.2% | 116% | 97.2% | 101% | 118% | 110% |
| O=C(COc1ccc(C(=O)c2ccccc2)cc1)NC1CCN(Cc2ccccc2)CC1 [AdipoRon] | 102% | 110% | 102% | 108% | 76.3% | 84% | 107% | 94.5% | 97.6% | 65.9% |
| CCOC(=O)[C@H]1O[C@@H]1C(=O)N[C@@H](CC(C)C)C(=O)NCCC(C)C [Aloxistatin] | 98.4% | 89.2% | 102% | 99.5% | 87.3% | 99% | 86.2% | 87.1% | 100% | 88.3% |
| N[C@](CCCCB(O)O)(CCN1CCCCC1)C(=O)O [Arginase inhibitor 1] | 97% | 84.6% | 104% | 102% | 90.9% | 112% | 93.9% | 93.1% | 93.4% | 99.7% |
| Cc1noc2c1-c1ccccc1C(c1ccc(Cl)cc1)=N[C@H]2CC(N)=O [CPI-0610] | 123% | 94.6% | 91.3% | 49% | 27.7% | 108% | 91.2% | 92.5% | 62.9% | 33.9% |

| Structure (SMILES) | cell viability ([1]; 1 nM) | cell viability ([1]; 10 nM) | cell viability ([1]; 100 nM) | cell viability ([1]; 1000 nM) | cell viability ([1]; 10000 nM) | cell viability ([2]; 1 nM) | cell viability ([2]; 10 nM) | cell viability ([2]; 100 nM) | cell viability ([2]; 1000 nM) | cell viability ([2]; 10000 nM) |
| --- | --- | --- | --- | --- | --- | --- | --- | --- | --- | --- |
| Nc1ccn([C@@H]2O[C@H](CO)[C@@H](O)[C@@H]2O)c(=O)n1 [Cytarabine] | 108% | 91.6% | 26.6% | 14.2% | 9.51% | 106% | 98.5% | 32% | 0.0645% | 1.39% |
| CCOc1ccc(Cc2cc([C@@H]3O[C@H](CO)[C@@H](O)[C@H](O)[C@H]3O)ccc2Cl)cc1 [Dapagliflozin] | 116% | 109% | 54.2% | 96.7% | 107% | 84.8% | 111% | 85.1% | 108% | 105% |
| CCN(CC)CCN(Cc1ccc(-c2ccc(C(F)(F)F)cc2)cc1)C(=O)Cn1c(SCc2ccc(F)cc2)nc(=O)c2c1CCC2 [Darapladib] | 112% | 113% | 114% | 86.3% | -0.547% | 102% | 98.2% | 88.9% | 88.8% | -0.43% |
| O=C(O)C(Cl)Cl [Dichloroacetate] | 101% | 97.7% | 93.4% | 92.1% | 102% | 91.7% | 102% | 103% | 95.8% | 103% |
| O=C1Oc2ccccc2C(=O)C1CC1C(=O)Oc2ccccc2C1=O (stereo not given) [Dicumarol] | 96.6% | 97.3% | 107% | 107% | 102% | 93.8% | 91.9% | 99.2% | 104% | 95.4% |
| CC12CCC(O)CC1CCC1C2CCC2(C)C(C3=CC(=O)OC3)CCC12O (stereo not given) [Digitoxigenin] | 94.5% | 102% | 98.9% | 3.66% | -0.896% | 97.3% | 97.5% | 107% | 0.616% | -1.47% |
| C[C@H]1O[C@@H](O[C@H]2[C@@H](O)C[C@H](O[C@H]3[C@@H](O)C[C@H](O[C@H]4CC[C@@]5(C)[C@H](CC[C@@H]6[C@@H]5C[C@@H](O)[C@]5(C)[C@@H](C7=CC(=O)OC7)CC[C@]65O)C4)O[C@@H]3C)O[C@@H]2C)C[C@H](O)[C@@H]1O [Digoxin] | 99.1% | 95.3% | 25% | 0.788% | 0.361% | 99% | 109% | 5.07% | -0.2% | -0.154% |
| O=c1c2ccccc2[se]n1-c1ccccc1 [Ebselen] | 103% | 97.8% | 104% | 96.5% | 93.1% | 95.6% | 96.7% | 96.1% | 96.9% | 82% |
| Clc1ccc(COC(Cn2ccnc2)c2ccc(Cl)cc2Cl)cc1 (stereo not given) [Econazole] | 116% | 91.2% | 96.9% | 84.2% | 54.8% | 110% | 88.3% | 112% | 89.8% | 58.1% |
| C#Cc1cnc(O)nc1O [Eniluracil] | 109% | 115% | 113% | 104% | 113% | 102% | 120% | 110% | 97.3% | 107% |
| CC(/C=C1\SC(=S)N(CC(=O)O)C1=O)=C\c1ccccc1 [Epalrestat] | 106% | 99.8% | 100% | 101% | 102% | 99.7% | 101% | 99.8% | 104% | 112% |
| CCOC(=O)[C@@]1(CCCCCCOc2ccc(Cl)cc2)CO1 [Etomoxir] | 104% | 112% | 116% | 101% | 78.9% | 109% | 109% | 114% | 87.6% | 99.9% |
| Cc1c(-c2ccccc2)oc2c(C(=O)OCCN3CCCCC3)cccc2c1=O.Cl [Flavoxate] | 94.6% | 93.2% | 102% | 95.6% | 87% | 99.1% | 99.5% | 105% | 101% | 103% |
| O=C(O)CCc1ccc(NCc2cccc(Oc3ccccc3)c2)cc1 [GW9508] | 101% | 89.5% | 89.6% | 102% | 93.4% | 84.3% | 103% | 95.8% | 112% | 103% |
| c1ccc2c(c1)OCC(=C1NCCN1)O2 [Idazoxan] | 105% | 104% | 78.6% | 91% | 87.4% | 97.4% | 97.9% | 86.9% | 94.2% | 93.7% |
| C[C@]12O[C@H](C[C@]1(O)CO)n1c3ccccc3c3c4c(c5c6ccccc6n2c5c31)CNC4=O [Lestaurtinib] | 104% | 91% | 59.6% | 21.8% | 1.08% | 107% | 84.4% | 61.4% | 9.84% | 0.0251% |
